Patent US10420341B2, “Herbicidal phenylpyrimidines” (BASF SE, priority 2015, dated 2019)

Tests used:
[1] = system: AMARE; assay: greenhouse post-emergence herbicidal test; type: in vivo, Amaranthus retroflexus; details: post-emergence method, application rate 2000 g/ha, scale from 0 to 100
From the text: (§1) The seeds of the test plants were sown separately for each species. For the post-emergence treatment, the test plants were first grown to a height of 3 to 15 cm, depending on the plant habit, and only then treated with the active ingredients which had been suspended or emulsified in water. For this purpose, the test plants were either sown directly and grown in the same containers, or they were first grown separately as seedlings and transplanted into the test containers a few days prior to treatment. Depending on the species, the plants were kept at 10-25° C. or 20-35° C., respectively. The test period extended over 2 to 4 weeks. During this time, the plants were tended, and their response to the individual treatments was evaluated. Evaluation was carried out using a scale from 0 to 100. 100 means no emergence of the plants, or complete destruction of at least the aerial moieties, and 0 means no damage, or normal course of growth. […] The plants used in the greenhouse experiments were of the following species: [table]

[2] = system: ECHCG; assay: greenhouse pre-emergence herbicidal test; type: in vivo, Echinocloa crus-galli; details: pre-emergence method, scale from 0 to 100
Summary of the method: (§2)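 Greenhouse plants receive the aqueous active ingredient straight after sowing, before emergence. Response is scored from 0 (no damage) to 100 (no emergence or complete kill of aerial parts) over a 2-4 week period.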

[3] = system: ALOMY; assay: greenhouse post-emergence herbicidal test; type: in vivo, Alopercurus myosuroides; details: post-emergence method, scale from 0 to 100
Summary of the method: (§3)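 Read-out is a visual 0–100 injury rating, 100 meaning complete destruction of at least aerial parts and 0 meaning normal growth. It was taken over 2–4 weeks after plants 3–15 cm tall were treated with compound suspended or emulsified in water.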

[4] = system: APESV; assay: greenhouse pre-emergence herbicidal test; type: in vivo, Apera spica-venti; details: pre-emergence method, scale from 0 to 100
Summary of the method: as §2

[5] = system: ECHCG; assay: greenhouse post-emergence herbicidal test; type: in vivo, Echinocloa crus-galli; details: post-emergence method, scale from 0 to 100
Summary of the method: as §3

[6] = system: AVEFA; assay: greenhouse post-emergence herbicidal test; type: in vivo, Avena fatua; details: post-emergence method, scale from 0 to 100
From the text: as §1

Compound | herbicidal activity against AMARE [1] | herbicidal activity against ECHCG ([2]; application rate 1000 g/ha) | herbicidal activity against ALOMY ([3]; application rate 1000 g/ha) | herbicidal activity against APESV ([4]; application rate 1000 g/ha) | herbicidal activity against ECHCG ([5]; application rate 1000 g/ha) | herbicidal activity against AVEFA ([6]; application rate 1000 g/ha) | herbicidal activity against ECHCG ([2]; application rate 500 g/ha) | herbicidal activity against ALOMY ([3]; application rate 500 g/ha) | herbicidal activity against APESV ([4]; application rate 500 g/ha) | herbicidal activity against AVEFA ([6]; application rate 500 g/ha) | herbicidal activity against ECHCG ([5]; application rate 500 g/ha)
CSc1ncc(-c2cc(C(F)(F)F)ccc2C)c(C(=O)O)n1 [example 93] | very good (a very good herbicidal activity is given at values of at least 85) | – | – | – | – | – | – | – | – | – | –
CSc1ncc(-c2cccc(C)c2C)c(C(=O)O)n1 [example 102] | very good (a very good herbicidal activity is given at values of at least 85) | – | – | – | – | – | – | – | – | – | –
COc1ccc(C(F)(F)F)cc1-c1cnc(SC)nc1C(=O)O [example 107] | very good (a very good herbicidal activity is given at values of at least 85) | – | – | – | – | – | – | – | – | – | –
COC(=O)c1nc(C2CC2)ncc1-c1cc(Br)ccc1F [example 191] | – | very good (a very good herbicidal activity is given at values of at least 85) | good (A good herbicidal activity is given at values of at least 70) | very good (a very good herbicidal activity is given at values of at least 85) | very good (a very good herbicidal activity is given at values of at least 85) | good (A good herbicidal activity is given at values of at least 70) | – | – | – | – | –
COC(=O)c1nc(C2CC2)ncc1-c1c(Br)ccc(F)c1F [example 197] | – | very good (a very good herbicidal activity is given at values of at least 85) | very good (a very good herbicidal activity is given at values of at least 85) | very good (a very good herbicidal activity is given at values of at least 85) | – | very good (a very good herbicidal activity is given at values of at least 85) | – | – | – | – | –
COC(=O)c1nc(C2CC2)ncc1-c1c(F)cc(F)cc1Br [example 214] | – | very good (a very good herbicidal activity is given at values of at least 85) | very good (a very good herbicidal activity is given at values of at least 85) | very good (a very good herbicidal activity is given at values of at least 85) | – | very good (a very good herbicidal activity is given at values of at least 85) | – | – | – | – | –
COC(=O)c1nc(C2CC2)ncc1-c1cc(F)c(F)cc1Br [example 215] | – | – | – | – | – | – | very good (a very good herbicidal activity is given at values of at least 85) | very good (a very good herbicidal activity is given at values of at least 85) | very good (a very good herbicidal activity is given at values of at least 85) | very good (a very good herbicidal activity is given at values of at least 85) | –
O=C(OCc1ccccc1)c1nc(C2CC2)ncc1-c1ccccc1Cl [example 254] | – | very good (a very good herbicidal activity is given at values of at least 85) | very good (a very good herbicidal activity is given at values of at least 85) | very good (a very good herbicidal activity is given at values of at least 85) | very good (a very good herbicidal activity is given at values of at least 85) | very good (a very good herbicidal activity is given at values of at least 85) | – | – | – | – | –
O=C(Oc1ccccc1)c1nc(C2CC2)ncc1-c1ccccc1Cl [example 255] | – | very good (a very good herbicidal activity is given at values of at least 85) | very good (a very good herbicidal activity is given at values of at least 85) | very good (a very good herbicidal activity is given at values of at least 85) | very good (a very good herbicidal activity is given at values of at least 85) | very good (a very good herbicidal activity is given at values of at least 85) | – | – | – | – | –
C[Si](C)(C)CCOC(=O)c1nc(C2CC2)ncc1-c1ccccc1Cl [example 258] | – | very good (a very good herbicidal activity is given at values of at least 85) | very good (a very good herbicidal activity is given at values of at least 85) | – | very good (a very good herbicidal activity is given at values of at least 85) | very good (a very good herbicidal activity is given at values of at least 85) | – | – | – | – | –
COc1ccc(OC(=O)c2nc(C3CC3)ncc2-c2ccccc2Cl)cc1 [example 259] | – | – | – | – | – | – | very good (a very good herbicidal activity is given at values of at least 85) | very good (a very good herbicidal activity is given at values of at least 85) | very good (a very good herbicidal activity is given at values of at least 85) | very good (a very good herbicidal activity is given at values of at least 85) | good (A good herbicidal activity is given at values of at least 70)
O=C(NO)c1nc(C2CC2)ncc1-c1ccccc1Cl [example 290] | – | – | – | – | – | – | very good (a very good herbicidal activity is given at values of at least 85) | very good (a very good herbicidal activity is given at values of at least 85) | very good (a very good herbicidal activity is given at values of at least 85) | very good (a very good herbicidal activity is given at values of at least 85) | –
O=C(O)c1nc(C2CC2)ncc1-c1c(Cl)cccc1C(F)(F)F [example 304] | – | – | very good (a very good herbicidal activity is given at values of at least 85) | very good (a very good herbicidal activity is given at values of at least 85) | very good (a very good herbicidal activity is given at values of at least 85) | very good (a very good herbicidal activity is given at values of at least 85) | – | – | – | – | –
O=C(O)c1nc(C2CC2)ncc1-c1ccccc1I [example 311] | – | – | – | – | – | – | very good (a very good herbicidal activity is given at values of at least 85) | very good (a very good herbicidal activity is given at values of at least 85) | very good (a very good herbicidal activity is given at values of at least 85) | very good (a very good herbicidal activity is given at values of at least 85) | very good (a very good herbicidal activity is given at values of at least 85)
COC(=O)c1nc(C2CC2)ncc1-c1ccccc1I [example 312] | – | – | – | – | – | – | very good (a very good herbicidal activity is given at values of at least 85) | very good (a very good herbicidal activity is given at values of at least 85) | very good (a very good herbicidal activity is given at values of at least 85) | very good (a very good herbicidal activity is given at values of at least 85) | very good (a very good herbicidal activity is given at values of at least 85)
O=C(O)c1nc(C(F)(F)F)ncc1-c1ccccc1Cl [example 315] | – | very good (a very good herbicidal activity is given at values of at least 85) | good (A good herbicidal activity is given at values of at least 70) | good (A good herbicidal activity is given at values of at least 70) | good (A good herbicidal activity is given at values of at least 70) | good (A good herbicidal activity is given at values of at least 70) | – | – | – | – | –
